What all share (assay): Peptidase detection on Columbia medium with substrate, spot inoculation
Type in all cases: cell-based

Test [1] has as its system Listeria monocytogenes NCTC 11 994. As to conditions: 40 mg substrate in 400 ml Columbia medium; 24 hours at 37° C.; visual reading. The procedure: (§1) A weight of 40 mg of substrate was dissolved in 4 ml of dimethyl sulfoxide and added to 400 ml of previously autoclaved Columbia medium. The medium was distributed into Petri dishes 90 mm in diameter, in a proportion of 20 ml per dish. Seventeen strains of microorganisms stemming from collections and belonging to various species of bacteria and yeasts are inoculated in spots of approximately 10 000 colony-forming units. The media are incubated for 24 hours at 37° C., and then the colonies formed are examined visually.

For test [2], the system named is Enterobacter cloacae NCTC 11 936. The conditions noted are these: 40 mg substrate in 400 ml Columbia medium, 24 hours at 37° C., visual reading. The procedure:
as §1

The test system of test [3] is Bacillus subtilis NCTC 9 372. The conditions noted are these: 40 mg substrate in 400 ml Columbia medium; 24 hours at 37° C.; visual reading. The procedure: as §1
Test [4] has as its system Streptococcus pyogenes NCTC 8 306. As to conditions: 40 mg substrate in 400 ml Columbia medium; 24 hours at 37° C.; visual reading. How it is done: as §1
The test system of test [5] is Candida glabrata NCPF 3 943. As to conditions: 40 mg substrate in 400 ml Columbia medium; 24 hours at 37° C.; visual reading. The procedure:
as §1

Test [6] deals with Pseudomonas aeruginosa NCTC 10 662. As to conditions: 40 mg substrate in 400 ml Columbia medium; 24 hours at 37° C.; visual reading. The procedure:
as §1

For test [7], the system named is Providencia rettgeri NCTC 7 475. The conditions noted are these: 40 mg substrate in 400 ml Columbia medium; 24 hours at 37° C.; visual reading. How it is done: as §1
Test [8] relates to Enterococcus faecium NCTC 7 171. The conditions noted are these: 40 mg substrate in 400 ml Columbia medium; 24 hours at 37° C.; visual reading. How it is done:
as §1

For test [9], the system named is Staphylococcus aureus NCTC 11 939. The conditions noted are these: 40 mg substrate in 400 ml Columbia medium; 24 hours at 37° C.; visual reading. How it is done: as §1
Test [10] has as its system Staphylococcus epidermidis NCTC 11 047. As to conditions: 40 mg substrate in 400 ml Columbia medium; 24 hours at 37° C.; visual reading. How it is done:
as §1

Test [11] relates to Yersinia enterocolitica NCTC 11 176. As to conditions: 40 mg substrate in 400 ml Columbia medium; 24 hours at 37° C.; visual reading. How it is done: as §1
Test [12] concerns Escherichia coli NCTC 10 418. The conditions noted are these: 40 mg substrate in 400 ml Columbia medium, 24 hours at 37° C., visual reading. How it is done: as §1
Test [13] relates to Staphylococcus aureus NCTC 6 571. The conditions noted are these: 40 mg substrate in 400 ml Columbia medium; 24 hours at 37° C.; visual reading. The procedure:
as §1

The test system of test [14] is Salmonella typhimurium NCTC 74. As to conditions: 40 mg substrate in 400 ml Columbia medium; 24 hours at 37° C.; visual reading. The procedure:
as §1

In test [15] the test system is Candida albicans ATCC 90 028. The conditions noted are these: 40 mg substrate in 400 ml Columbia medium; 24 hours at 37° C.; visual reading. The procedure:
as §1

Test [16] has as its system Enterococcus faecalis NCTC 775. As to conditions: 40 mg substrate in 400 ml Columbia medium, 24 hours at 37° C., visual reading. The procedure: as §1
Test [17] concerns Serratia marcescens NCTC 10 211. The conditions noted are these: 40 mg substrate in 400 ml Columbia medium, 24 hours at 37° C., visual reading. How it is done: as §1

Take “Glycyl-2-(4′-aminostyryl)-N-methyl-benzothiazolinium iodide [Gly-ASBM^+]”: the Growth in test [1] worked out at 1; in [2], 2; in [3] it was 2; in [4], 1; in test [5], 0.5; in test [6] it was 2. Also, the Growth in [7] turned out to be 2; in [8], 1; in test [9] it was 1; in [10] it was 1; in test [11], 2; in test [12] it was 2. Also, the Growth worked out at 2 in test [13]; 2 in test [14]; 1 in test [15]; 1 in test [16]; 2 in test [17]. In addition, the Color entry was “Pale” in test [2] (colony color), “Pale” in test [12] (colony color), “Pale” in test [16] (colony color) and “Orange” in test [17] (colony color).
